In patent US8227406B2, “Antimicrobial peptides” (Dermagen AB, priority 2006, dated 2012):

Assays:
[1] = tested on: Staphylococcus aureus ATCC29213; test: Radial diffusion assay (RDA), S. aureus; assay type: cell-based; settings: Table 1b; 10 mM Tris Hcl (pH 7.4)
Protocol: (§1) Peptides. Peptides were from Sigma-Genosys, generated by a peptide synthesis platform (PEPscreen®, Custom Peptide Libraries, SigmaGenosys). Yield was ˜1-6 mg, and peptide length 20 amino acids. MALDI-ToF Mass Spectrometry was perfomed on these peptides. Average Crude Purity of 20mers was ˜60%. Peptides were supplied lyophilized and in a 96-well tube rack. Prior to biological testing the PEPscreen peptides were diluted in dH2O (5 mM stock), and stored at −20 C. This stock solution was used for the subsequent experiments.
(§2) Eschericia coli ATCC25922, Staphylococcus aureus ATCC29213, and the fungal isolate Candida albicans ATCC90028 were obtained from the Department of Bacteriology, Lund University Hospital.
(§3) Radial diffusion assays (RDA) were performed essentially as described earlier (Lehrer, R. I., Rosenman, M., Harwig, S. S., Jackson, R. & Eisenhauer, P. (1991) Ultrasensitive assays for endogenous antimicrobial polypeptides, J Immunol Methods. 137, 167-73). Briefly, bacteria (E. coli, S. aureus) or fungi (C. albicans) were grown to midlogarithmic phase in 10 ml of full-strength (3% w/v) trypticase soy broth (TSB) (Becton-Dickinson, Cockeysville, Md.). The microorganisms were washed once with 10 mM Tris, pH 7.4. 4×10^6 bacterial cfu or 1×10^5 fungal cfu was added to 5 ml of the underlay agarose gel, consisting of 0.03% (w/v) TSB, 1% (w/v) low-electroendoosmosistype (Low-EEO) agarose (Sigma, St Louise Mo.) and a final concentration of 0.02% (v/v) Tween 20 (Sigma). The underlay was poured into a Ø 85 mm petri dish. After agarose solidified, 4 mm-diameter wells were punched and 6 μl of test sample was added to each well. Plates were incubated at 37° C. for 3 hours to allow diffusion of the peptides. The underlay gel was then covered with 5 ml of molten overlay (6% TSB and 1% Low-EEO agarose in dH2O). Antimicrobial activity of a peptide is visualized as a clear zone around each well after 18-24 hours of incubation at 37° C. for bacteria and 28° C. for Candida albicans. Other examples of peptides that were screened and found to show an increased effect against the above mentioned microorgansism are listed below. Some of the results are found in table 1c showing the effects against C. albicans, table 1d E. coli and table 1e S. aureus.

[2] = tested on: Eschericia coli ATCC25922; test: Radial diffusion assay (RDA), E. coli; assay type: cell-based, Escherichia coli; settings: Table 1b; 10 mM Tris Hcl (pH 7.4)
Protocol: as §1, §2, §3

Substance	RDA values (mm) S. aureus ATCC 29213 [1] [mm]	RDA values (mm) E. coli ATCC 25922 [2] [mm]
DDDDDDDDDD [Peptide T59]	0.00	0.00
DDDDDDDDDDWWW [Peptide T60]	0.00	0.00
GKHWWW [Peptide T30]	0.00	3.05
GKKNGKHWWW [Peptide T26]	1.76	7.47
HWWW [Peptide T32]	0.00	0.00
KGKKNGKHWWW [Peptide T25]	2.55	8.87
KHWWW [Peptide T31]	0.00	1.48
KKKKKKKKKK [Peptide T46]	1.32	5.94
KKKKKKKKKKWWW [Peptide T47]	4.46	7.48
KKKKKKKKKWWW [Peptide T48]	7.19	9.26
KKKKKKKKWWW [Peptide T49]	5.48	7.90
KKKKKKKWWW [Peptide T50]	4.90	7.82
KKKKKKWWW [Peptide T51]	4.16	8.12
KKKKKWWW [Peptide T52]	3.43	9.01
KKKKWWW [Peptide T53]	2.85	8.11
KKKWWW [Peptide T54]	2.02	4.93
KKNGKHWWW [Peptide T27]	1.68	7.56
KKWWW [Peptide T55]	1.01	2.95
KNGKHWWW [Peptide T28]	0.00	4.99
KNKGKKNGKH [Peptide T1]	0.00	2.56

Substance	RDA values (mm) S. aureus ATCC 29213 [1] [mm]	RDA values (mm) E. coli ATCC 25922 [2] [mm]
KNKGKKNGKHGSGSPWWW [Peptide T61]	1.52	8.64
KNKGKKNGKHWWW [Peptide T2]	4.23	8.90
KNKGKKNGKHWWW [Peptide T23]	3.26	8.65
KNKGKKNGKHWWWWW [Peptide T13]	5.58	7.93
KNKGKKNGKWWW [Peptide T3]	4.07	9.16
KNKGKKNGKWWWWW [Peptide T14]	5.07	7.90
KNKGKKNGWWWWW [Peptide T15]	3.90	8.03
KNKGKKNWWW [Peptide T5]	2.85	8.36
KNKGKKNWWWWW [Peptide T16]	3.83	9.09
KNKGKKWWW [Peptide T6]	2.79	8.16
KNKGKKWWWWW [Peptide T17]	3.88	8.98
KNKGKWWW [Peptide T7]	0.00	6.84
KNKGKWWWWW [Peptide T18]	1.82	8.21
KNKGWWW [Peptide T8]	0.00	2.94
KNKGWWWWW [Peptide T19]	1.10	4.49
KNKWWW [Peptide T9]	0.00	2.73
KNKWWWWW [Peptide T20]	0.55	4.22
KNWWW [Peptide T10]	0.00	2.69
KNWWWWW [Peptide T21]	0.00	1.70
KWWW [Peptide T11]	0.00	0.00

Substance	RDA values (mm) S. aureus ATCC 29213 [1] [mm]	RDA values (mm) E. coli ATCC 25922 [2] [mm]
KWWW [Peptide T56]	0.75	4.48
KWWWWW [Peptide T22]	0.00	2.18
NGKHWWW [Peptide T29]	0.00	0.00
NKGKKNGKHWWW [Peptide T24]	2.41	8.44
SNSGSSNGSH [Peptide T43]	0.00	0.00
SNSGSSNGSHWWW [Peptide T44]	0.00	0.00
SSSSSSSSSS [Peptide T57]	0.00	0.00
SSSSSSSSSSWWW [Peptide T58]	0.00	0.00
WWW [Peptide T12]	0.00	0.00
WWWK [Peptide T42]	0.00	0.00
WWWKN [Peptide T41]	0.00	0.00
WWWKNK [Peptide T40]	0.00	0.00
WWWKNKG [Peptide T39]	0.00	0.00
WWWKNKGK [Peptide T38]	0.00	1.42
WWWKNKGKK [Peptide T37]	0.11	3.28
WWWKNKGKKN [Peptide T36]	0.66	5.04
WWWKNKGKKNG [Peptide T35]	0.00	1.57
WWWKNKGKKNGK [Peptide T34]	0.43	4.94
WWWKNKGKKNGKH [Peptide T33]	2.20	7.95
WWWSNSGSSNGSH [Peptide T45]	0.00	0.00
